Here are results for three compounds from patent publication US9410947B2, “Fluorescent dyes and related methods” (University of Washington through its Center for …, priority 2012, dated 2016).

Entries after “also recorded” stand apart in the source; their conditions may differ.

The test system of data set [1] is salmon sperm DNA. The experiment in a line: Photometric (colorimetric) titration of dye solutions with DNA, Scatchard / n-K fit. The class given is binding. Here is the method:
Dye/DNA binding was assessed. The binding constant and number of dye molecules bound per base pair were assessed by means of photometric titrations (Peacocke, A. R.; Skerrett, J. N. H., Trans. Faraday Soc. 1956, 52, 261, Angerer, L. M.; Moudrianakis, E. N., J. Mol. Bio. 1972, 63, 505-521) of dye solutions with commercially available salmon sperm DNA (Sigma Aldrich, MW 50 kD to 100 kD) in 10 mM TE buffer at pH 7.2. Experiments were run using a temperature-controlled Ocean Optics diode array spectrophotometer at 25.0° C., with 2.5 mL of dye solution at a concentration sufficient for an initial optical density near 0.75, adding 1.5 mM DNA solution in 30 μL aliquots.
This example describes affinity of DANPY-1 to DNA. […] These experiments were analyzed using the Scatchard equation (Scatchard, G., Ann. N.Y. Acad. Sci. 1949, 51, 662-672.) […]
A titration methodology was also used. Dyes were evaluated for their DNA-binding properties by means of colorimetric titrations in buffered aqueous solution (1×TE buffer titrated to pH 7.2 with HCl). […] After allowing the solution to mix for about one minute, the stirrer was stopped and a spectrum was recorded. If the initial absorbance of the dye was ≧1, the dye solution was diluted with the appropriate solvent (TE buffer, methanol, or butanol) until the initial absorbance was <1. […] The reduced absorbance change […]

Data set [2] can be described thus: Solubility in solvents. The class given is physicochemical.
For data set [3] the following is noted: in chloroform, extrapolated to zero frequency; cited from earlier work.
The test system of data set [4] is Prorocentrum minimum. The data set is described as follows: Flow cytometric analysis of DNA staining in alga. The format is cell-based. To be noted: 1% DMSO. The source says:
In another aspect, this example describes a set of experiments to investigate DANPY-1 dye for use in flow cytometric analysis of DNA. The alga Prorocentrum minimum was selected for these studies. Several controls were run to: (a) ensure that cell integrity was maintained, (b) assess the contribution of unbound DANPY-1 to fluorescent background signals and (c) determine a dye concentration and the intensity of the fluorescent signal when the target DNA is fully saturated with bound dye. The DANPY-1 concentrations that were tested in these preliminary experiments ranged from 7.1 μM to 228 μM. All of the flow cytometric work was performed on an Accuri C6 flow cytometer (BD Scientific, Ann Arbor, Mich.). The excitation wavelength for the FL1, FL2, and FL3 detectors (or channels) is 488 nm and the FL4 laser excites at a wavelength of 640 nm. The fluorescent wavelengths that each channel detects are as follows: FL1 530/30, FL2 585/40, FL3 670 LP and FL4 675/25. These experiments are summarized below (data not shown): […]

The subject of data set [5] is dsDNA. The data set is described as follows: QCM-D binding study, dsDNA layer. Also on record: species or system salmon. To be noted: pH 7.2 1×TE buffer, 298 K, 0.3 mL/min, rinse ten minutes. The source says: (§1) In yet another aspect, the present disclosure includes methods for quantifying nucleic acid molecules in a sample. For example, the present disclosure can include a method of determining a quantity of a nucleic acid molecule in a sample using the Quartz Crystal Microbalance with Dissipation Monitoring (QCM-D) method. QCM-D can be used to determine the formation of films (e.g., nm in thickness). For example, films may be formed on a surface from proteins, polymers, surfactants and cells. QCM-D can detect films formed in liquid and may be used to determine binding kinetics of, for example, cationic dyes (e.g., ethidium bromide, DANPY-1 and/or DAST). For example, a Q-Sense instrument (e.g., a Q-Sense E4 instrument, Biolin Scientific AB, Stockholm) can be used for QCM-D using a dedicated set of QCM sensors (e.g., SiO2-coated). The procedures of cleaning, deposition, mass monitoring, and preparing nucleic acid for QCM-D are known. (R. J. Rawle, C. R. D. Selassie, M. S. Johal, Langmuir 2007, 23, 9563-9566). Data can be output as kinetics that can include structural changes and mass changes. The crystals can be, for example, coated with a polyethylene imine (PEI) layer to enable binding of anionic nucleic acids. The crystals can be, for example, coated with a polymer polystyrene sulfonate (PSS), that only undergoes loose electrostatic binding. […]

For data set [6], the system named is ssDNA. The experiment in a line: QCM-D binding study, ssDNA layer. Further details: species or system salmon. To be noted: pH 7.2 1×TE buffer, 298 K, 0.3 mL/min, rinse ten minutes.
Description: as §1

Data set [7] in a line: QCM-D binding study, PSS control polymer. The conditions noted are these: pH 7.2 1×TE buffer, 298 K.
Description: as §1

In data set [8] the test system is tRNA. The experiment in a line: QCM-D binding study, tRNA layer. The conditions noted are these: pH 7.2 1×TE buffer, 298 K, 0.3 mL/min, rinse ten minutes.
Description: as §1

Data set [9] is described as follows: QCM-D binding study, bare SiO2 control. The conditions noted are these: pH 7.2 1×TE buffer, 298 K.
Description: as §1

The nature of data set [10]: QCM-D binding study, PEI layer. The source says:
The three nucleic acids (e.g., single-stranded DNA (ssDNA), double-stranded DNA (dsDNA), and transfer RNA (tRNA)) used in this example are anionic. The crystals were coated with a polyethylene imine (PEI) layer to create a surface and enable binding of the nucleic acids. […] Polystyrene sulfonate (PSS) was used as a control polymer. As controls, PSS which can only undergo loose electrostatic binding, and bare SiO2 were used. Any materials used for coating were allowed to deposit until a stable mass was reached (e.g., for five minutes) followed by five minutes of rinsing with buffer between each layer; (1) PEI or PSS, (2) nucleic acid and (3) the dye. After deposition, the film was rinsed with buffer for ten minutes. If the adsorbed mass returned to near the form immediately prior to the addition of the dye, then remained stable, the binding was characterized as reversible. Binding was characterized as irreversible if the mass remained constant after rinsing or leveled off at a substantially higher value than before the dye was added.

As to `CCN(CCO)c1ccc(N=Nc2ccc([N+](=O)[O-])cc2)cc1` [DR1, Disperse Red 1], in data set [1] (1:1 TE buffer and ethanol), the “change in the absorbance peak on titration with DNA” value is “no substantial change in the absorbance peak”. Further, in data set [2] (water), the solubility in water result is “not sufficiently soluble”. For the same compound, the “static hyperpolarizability βzzz(0)” value in data set [3] is 54±5 10^−30 esu.

In the case of `CC(=O)[O-].CN(C)c1ccc2cc(-c3cc[n+](C)cc3)ccc2c1` [DANPY-1, dimethylaminonaphthylpyridinium], the cell concentration is recorded as 1.02e5 cells/mL in data set [4] (7.1 μM dye, 10 minute exposure); 9.5e4 cells/mL in data set [4] (57 μM dye, 10 minute exposure); 8.1e4 cells/mL in [4] (228 μM dye, 10 min exposure). Moreover, the “impact on cell integrity” value in [4] (7.1 μM dye, 10 minute exposure) is “no impact on cell integrity”; in [4] (57 μM dye, 10 minute exposure), “no impact on cell integrity”; in [4] (228 μM dye, 10 min exposure) it was “some impact on cell integrity”. The “mean fluorescent intensity FL-1 channel” value turned out to be 6032 in data set [4] (7.1 μM dye, FL1 530/30, ex 488 nm) and 26131 in data set [4] (228 μM dye, FL1 530/30, ex 488 nm). The “mean fluorescent intensity FL-2 channel” value in data set [4] (7.1 μM dye, FL2 585/40, ex 488 nm) was found to be 40801; in data set [4] (228 μM dye, FL2 585/40, ex 488 nm) it was 412988. In data set [4] (57 μM dye, FL1 530/30, ex 488 nm), the “mean FU intensity FL-1 channel” value came to 17951 FU. The “mean FU intensity FL-2 channel” value in data set [4] (57 μM dye, FL2 585/40, ex 488 nm) came to 167481 FU. The “solubility in standard spin-coating solvents” value in data set [2] (TCE and cyclopentanone) is “poorly soluble”. The solubility in butanol entry in [2] (butanol) is reported as “poorly soluble”. For the same compound, the “solubility in lower alcohols” value in data set [2] (methanol, ethanol, and n-propanol) is “highly soluble”.

Consider “trans-4-[4-(Dimethylamino)styryl]-1-methylpyridinium toluenesulfonate [DAST]”, for which, in data set [1] (TE buffer), the “shift in absorbance maximum upon addition of DNA” value is listed as “exhibited a shift in absorbance maximum”. Moreover, in data set [5], the “QCM-D binding to dsDNA” value is “did not interact strongly and None”. Moreover, in data set [6], the “QCM-D binding to ssDNA” value is listed as “interacted strongly; also recorded: Irreversible”. Moreover, in [7], the “QCM-D binding to PSS” value is reported as “interacted strongly; also recorded: Partially”. Also, the “QCM-D binding to tRNA” value in [8] was “did not interact strongly; also recorded: Reversible”. Moreover, the “QCM-D binding to SiO2” value in [9] is on record as “Reversible”. The “QCM-D binding to PEI layer” value in data set [10] is recorded as “did not bind”.
